# Assay results reported in patent US12358948B2, “Neurotensinergic agonists and methods of using same preventing or treating pain” (priority 2019, dated 2025).
# Where a SMILES comes first, the peptide text is derived from it. Bridges are numbered along the chain shown (N, C = ends). [ ]: non-standard residue; d: D form. ξ: configuration not given here. dAllylGly = C=CC[C@@H](N)C(=O)O; Cha = N[C@@H](CC1CCCCC1)C(=O)O; Ile(3ξ) = CCC(C)[C@H](N)C(=O)O; AllylGly = C=CC[C@H](N)C(=O)O; Chg = N[C@H](C(=O)O)C1CCCCC1; Tle = CC(C)(C)[C@H](N)C(=O)O; Nle = CCCC[C@H](N)C(=O)O; Orn = NCCC[C@H](N)C(=O)O; Nva = CCC[C@H](N)C(=O)O; Dap = NC[C@H](N)C(=O)O
# Assays:
# hNTS1 receptor = biological target: T1, hNTS1 receptor (Homo sapiens, UniProt P30989); test: Competitive radioligand binding assay on the hNTS1 receptor; settings: displacement of 125I-[Tyr3]-NT, membranes of CHO-K1 cells expressing hNTS1; read-out: IC50 NTS1
# T1 construct: membranes prepared from them
# Method: (§1) CHO-K1 (Chinese Hamster Ovary) cells stably expressing hNTS1 and 1321N1 cells stably expressing hNTS2 (ES-690-C and ES-691-C from PerkinElmer, Montréal, Canada) were cultured respectively in Ham's F12 and in DMEM culture media. Culture media were supplemented with 10% FBS, 100 U/mL penicillin, 100 μg/mL streptomycin, 20 mM HEPES, and 0.4 mg/mL G418 at 37° C. in a humidified chamber at 5% CO2.
# (§2) The cells expressing hNTS1 were frozen when they reached 80% confluency. They were scrapped off the dish with 10 mM Tris buffer, 1 mM EDTA, pH 7.5 and centrifuged at 15,000 g for 5 min at 4° C. The pellet was then re-suspended in 1 mL binding buffer. The cells expressing hNTS2 were also frozen when they reached 80% confluency. They were scraped off the dish with PBS, 0.5 mM EDTA, pH 7.5 and sonicated for 5 minutes (pulse 30 s/5 s off, amplitude 40%). They were ultracentrifuged at 100 000 g for 60 minutes at 4° C. The pellet was re-suspended in 1 mL freezing buffer (PBS, glycerol, 0.5 mM EDTA), sonicated for 1 minute (pulse 30 s/5 s off, amplitude 50%) and further diluted in binding buffer. Competitive radioligand binding experiments were performed by incubating 15 μg of cell membranes expressing the hNTS1 receptor with […] of ^125I-[Tyr^3]-NT (2200 Ci/mmol) or 50 μg of cell membranes expressing the hNTS2 receptor with […] of ^125I-[Tyr^3]-NT in binding buffer (50 mM Tris-HCl, pH 7.5, 0.2% BSA) in the presence of increasing concentrations of analogues ranging from 10^−11 to 10^−4 M for 60 min at 25° C. After incubation, the binding reaction mixture was transferred in PEI-coated 96-well filter plates (glass fiber filters GF/B, Millipore, Billerica, MA). Reaction was terminated by filtration, and plates were washed three times with 200 μL ice-cold binding buffer. Glass filters were then counted using a γ-counter (2470 Wizard2, PerkinElmer, Mississauga, Ontario, Canada). Non-specific binding was measured in the presence of 10^−5 M unlabeled NT (8-13) and represented less than 5% of total binding. IC50 values were determined from competition curves as the unlabeled ligand concentration inhibiting 50% of ^125I-[Tyr^3]-NT-specific binding.
# (§3) Competitive radioligand binding data were plotted using the nonlinear regression One-site-Fit Log(IC50) and represented the mean±SEM of at least three independent experiments in triplicates.
# hNTS2 receptor = biological target: T2, hNTS2 receptor (Homo sapiens, UniProt O95665); test: Competitive radioligand binding assay on the hNTS2 receptor; settings: for IC50: displacement of 125I-[Tyr3]-NT, membranes of 1321N1 cells expressing hNTS2, read-out: IC50 NTS2 (converted); for Selectivity: ratio IC50 for NTS1 : IC50 for NTS2
# T2 construct: membranes prepared from them
# Method: as §1, §2, §3
# T2 sequence (O95665 whole entry): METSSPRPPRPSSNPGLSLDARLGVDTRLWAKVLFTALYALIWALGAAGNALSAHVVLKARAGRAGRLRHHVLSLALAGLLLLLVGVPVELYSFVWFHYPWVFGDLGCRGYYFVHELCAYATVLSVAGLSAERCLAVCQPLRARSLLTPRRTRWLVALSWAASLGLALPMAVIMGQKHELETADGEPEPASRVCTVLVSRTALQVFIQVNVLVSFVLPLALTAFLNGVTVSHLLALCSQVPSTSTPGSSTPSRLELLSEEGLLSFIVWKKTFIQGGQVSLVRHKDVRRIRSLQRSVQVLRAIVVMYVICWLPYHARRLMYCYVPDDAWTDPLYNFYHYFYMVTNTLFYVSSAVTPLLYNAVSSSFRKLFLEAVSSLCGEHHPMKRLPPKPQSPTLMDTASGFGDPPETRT
# T1 sequence (P30989 whole entry): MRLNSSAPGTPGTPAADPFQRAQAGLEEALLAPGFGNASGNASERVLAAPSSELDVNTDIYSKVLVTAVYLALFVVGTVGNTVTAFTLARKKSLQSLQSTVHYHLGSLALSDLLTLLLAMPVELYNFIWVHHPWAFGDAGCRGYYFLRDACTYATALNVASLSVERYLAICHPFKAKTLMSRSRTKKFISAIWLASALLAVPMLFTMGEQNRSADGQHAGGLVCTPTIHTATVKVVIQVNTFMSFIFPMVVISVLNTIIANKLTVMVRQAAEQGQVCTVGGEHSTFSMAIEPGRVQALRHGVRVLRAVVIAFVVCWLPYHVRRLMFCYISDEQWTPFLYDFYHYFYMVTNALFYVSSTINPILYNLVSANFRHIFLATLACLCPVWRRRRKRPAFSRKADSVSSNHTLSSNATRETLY
SMILES,IC50 (hNTS1 receptor) [µM],IC50 (hNTS2 receptor) [µM],Selectivity (hNTS2 receptor)
"CC(C)C[C@H](NC(=O)[C@H](Cc1ccc(O)cc1)NC(=O)C1(C)CC=CCCC[C@H](N)C(=O)N[C@@H](CCCCN)C(=O)N[C@@H](CCCCN)C(=O)N1)C(=O)O (single isomer, unassigned) [compound 92, c[G(All)KKG*(alpha-Me-(4-Pentenyl))]YL]",> 100,0.511,>196
"NCCCC[C@@H]1NC(=O)[C@H](CCCCN)NC(=O)[C@@H](N)CC=CC[C@@H](C(=O)N[C@@H](Cc2ccc(O)cc2)C(=O)N[C@@H](CC2CCCCC2)C(=O)O)NC1=O [compound 31, c[G(All)KKG(All)]YA(Ch)] (H-[AllylGly]KK[AllylGly]Y[Cha]-OH; staple 1-4)",> 100,0.00867,>11534
"NCCCC[C@@H]1NC(=O)[C@H](CCCCN)NC(=O)[C@@H](N)CC=CC[C@@H](C(=O)N[C@@H](Cc2ccc(O)cc2)C(=O)N[C@@H](Cc2ccccc2)C(=O)O)NC1=O [compound 32, c[G(All)KKG(All)]YF] (H-[AllylGly]KK[AllylGly]YF-OH; staple 1-4)",> 100,0.453,>220
"CC(C)[C@H](NC(=O)[C@H](Cc1ccc(O)cc1)NC(=O)[C@@H]1CC=CC[C@H](N)C(=O)N[C@@H](CCCCN)C(=O)N[C@@H](CCCCN)C(=O)N1)C(=O)O [compound 33, c[G(All)KKG(All)]YV] (H-[AllylGly]KK[AllylGly]YV-OH; staple 1-4)",> 100,79.8,>1.25
"CC(C)C[C@@H](NC(=O)[C@H](Cc1ccc(O)cc1)NC(=O)[C@@H]1CC=CC[C@H](N)C(=O)N[C@@H](CCCCN)C(=O)N[C@@H](CCCCN)C(=O)N1)C(=O)O [compound 38, c[G(All)KKG(All)]YL*] (H-[AllylGly]KK[AllylGly]Y[dL]-OH; staple 1-4)",> 100,240,> 2.4
"CC(C)C[C@H](NC(=O)[C@H](Cc1ccc(O)cc1)NC(=O)[C@H]1CC=CC[C@H](N)C(=O)N[C@@H](CCCCN)C(=O)N[C@@H](CCCCN)C(=O)N1)C(=O)O [compound 40, c[G(All)KKG*(All)]YL] (H-[AllylGly]KK[dAllylGly]YL-OH; staple 1-4)",> 100,1.2,>85
"CC(C)C[C@H](NC(=O)[C@H](Cc1ccc(O)cc1)NC(=O)[C@@H]1CC=CC[C@@H](N)C(=O)N[C@@H](CCCCN)C(=O)N[C@@H](CCCCN)C(=O)N1)C(=O)O [compound 41, c[G*(All)KKG(All)]YL] (H-[dAllylGly]KK[AllylGly]YL-OH; staple 1-4)",> 100,0.113,>889
"CC(C)C[C@H](NC(=O)[C@H](Cc1ccc(O)cc1)NC(=O)[C@H]1CC=CC[C@@H](N)C(=O)N[C@@H](CCCCN)C(=O)N[C@@H](CCCCN)C(=O)N1)C(=O)O [compound 42, c[G*(All)KKG*(All)]YL] (H-[dAllylGly]KK[dAllylGly]YL-OH; staple 1-4)",> 100,2.3,>42
"CC(C)C[C@H](NC(=O)[C@@H](Cc1c[nH]c2ccccc12)NC(=O)[C@@H]1CC=CC[C@H](N)C(=O)N[C@@H](CCCCN)C(=O)N[C@@H](CCCCN)C(=O)N1)C(=O)O [compound 43, c[G(All)KKG(All)]W*L] (H-[AllylGly]KK[AllylGly][dW]L-OH; staple 1-4)",> 100,0.968,>103.3
"CC(C)C[C@H](NC(=O)[C@H](Cc1ccc(O)cc1)NC(=O)[C@@H]1CNC(=O)CC[C@H](N)C(=O)N[C@@H](CCCCN)C(=O)N[C@@H](CCCCN)C(=O)N1)C(=O)O [compound 102, c[EKKDap]YL] (H-EKK[Dap]YL-OH; lactam 1-4)",> 100,,
"CC(C)C[C@H](NC(=O)[C@H](Cc1ccc(O)cc1)NC(=O)[C@@H]1CCCNC(=O)CC[C@H](N)C(=O)N[C@@H](CCCCN)C(=O)N[C@@H](CCCCN)C(=O)N1)C(=O)O [compound 106, c[EKKOrn]YL] (H-EKK[Orn]YL-OH; lactam 1-4)",> 100,,
"CC(C)C[C@H](NC(=O)[C@H](Cc1ccc(O)cc1)NC(=O)[C@@H]1CCCNC(=O)C[C@H](N)C(=O)N[C@@H](CCCCN)C(=O)N[C@@H](CCCCN)C(=O)N1)C(=O)O [compound 107, c[DKKOrn]YL] (H-DKK[Orn]YL-OH; lactam 1-4)",> 100,,
"CC(C)C[C@H](NC(=O)[C@H](Cc1ccc(O)cc1)NC(=O)[C@@H]1CCCCNC(=O)CC[C@H](N)C(=O)N[C@@H](CCCCN)C(=O)N[C@@H](CCCCN)C(=O)N1)C(=O)O [compound 108, c[EKKK]YL] (H-EKKKYL-OH; lactam 1-4)",> 100,,
"CC(C)C[C@H](NC(=O)[C@H](Cc1ccc(O)cc1)NC(=O)[C@@H]1CCCCNC(=O)C[C@H](N)C(=O)N[C@@H](CCCCN)C(=O)N[C@@H](CCCCN)C(=O)N1)C(=O)O [compound 109, c[DKKK]YL] (H-DKKKYL-OH; lactam 1-4)",> 100,,

# Further lines, results first:
IC50 (hNTS1 receptor) [µM],IC50 (hNTS2 receptor) [µM],Selectivity (hNTS2 receptor),SMILES
100,10.2,10,"CCC(C)[C@H](NC(=O)[C@H](Cc1ccc(O)cc1)NC(=O)[C@@H]1CC=CC[C@H](N)C(=O)N[C@@H](CCCCN)C(=O)N[C@@H](CCCCN)C(=O)N1)C(=O)O (some centres unmarked) [compound 14, c[G(All)KKG(All)]YI] (H-[AllylGly]KK[AllylGly]Y[Ile(3ξ)]-OH; staple 1-4)"
> 100,,,"CC(=O)Oc1ccc(C[C@H](NC(=O)[C@@H]2CC=CC[C@H](N)C(=O)N[C@@H](CCCCN)C(=O)N[C@@H](CCCCN)C(=O)N2)C(=O)N[C@@H](CC(C)C)C(=O)O)cc1 [compound 15, c[G(All)KKG(All)]Y(OAc)L] (H-[AllylGly]KK[AllylGly]Y(Ac)L-OH; staple 1-4)"
> 100,0.0536,1865,"CC(C)C[C@H](NC(=O)[C@H](Cc1c[nH]c2ccccc12)NC(=O)[C@@H]1CC=CC[C@H](N)C(=O)N[C@@H](CCCCN)C(=O)N[C@@H](CCCCN)C(=O)N1)C(=O)O [compound 16, c[G(All)KKG(All)]WL] (H-[AllylGly]KK[AllylGly]WL-OH; staple 1-4)"
> 100,1.1,90.9,"CC(C)C[C@H](NC(=O)[C@H](CCCCN)NC(=O)[C@@H]1CC=CC[C@H](N)C(=O)N[C@@H](CCCCN)C(=O)N[C@@H](CCCCN)C(=O)N1)C(=O)O [compound 17, c[G(All)KKG(All)]KL] (H-[AllylGly]KK[AllylGly]KL-OH; staple 1-4)"
> 100,4.7,,"CC(C)C[C@H](NC(=O)[C@@H](Cc1ccc(O)cc1)NC(=O)[C@@H]1CC=CC[C@H](N)C(=O)N[C@@H](CCCCN)C(=O)N[C@@H](CCCCN)C(=O)N1)C(=O)O [compound 21, c[G(All)KKG(All)]Y*L] (H-[AllylGly]KK[AllylGly][dY]L-OH; staple 1-4)"
> 100,77.8,>1.3,"CC(C)(C)[C@H](NC(=O)[C@H](Cc1ccc(O)cc1)NC(=O)[C@@H]1CC=CC[C@H](N)C(=O)N[C@@H](CCCCN)C(=O)N[C@@H](CCCCN)C(=O)N1)C(=O)O [compound 27, c[G(All)KKG(All)]YTle] (H-[AllylGly]KK[AllylGly]Y[Tle]-OH; staple 1-4)"
> 100,0.381,>262,"CCCC[C@H](NC(=O)[C@H](Cc1ccc(O)cc1)NC(=O)[C@@H]1CC=CC[C@H](N)C(=O)N[C@@H](CCCCN)C(=O)N[C@@H](CCCCN)C(=O)N1)C(=O)O [compound 28, c[G(All)KKG(All)]YNle] (H-[AllylGly]KK[AllylGly]Y[Nle]-OH; staple 1-4)"
> 100,3.3,>30.3,"CCC[C@H](NC(=O)[C@H](Cc1ccc(O)cc1)NC(=O)[C@@H]1CC=CC[C@H](N)C(=O)N[C@@H](CCCCN)C(=O)N[C@@H](CCCCN)C(=O)N1)C(=O)O [compound 29, c[G(All)KKG(All)]YNva] (H-[AllylGly]KK[AllylGly]Y[Nva]-OH; staple 1-4)"
> 100,0.955,>104,"NCCCC[C@@H]1NC(=O)[C@H](CCCCN)NC(=O)[C@@H](N)CC=CC[C@@H](C(=O)N[C@@H](Cc2ccc(O)cc2)C(=O)N[C@H](C(=O)O)C2CCCCC2)NC1=O [compound 30, c[G(All)KKG(All)]YChG] (H-[AllylGly]KK[AllylGly]Y[Chg]-OH; staple 1-4)"
